Reference: patent US5561111A, “Stable glutamine derivatives for oral and intravenous rehydration and nutrition therapy” (The University of Virginia Patent Foundation, priority 1994, dated 1996)
Peptide text beside a SMILES is read from it.

Test system: rabbit ileal mucosa
Assay: Intestinal sodium cotransport in rabbit ileal mucosa mounted in Ussing chambers
Procedure: To study intestinal sodium cotransport using the compounds of the present invention, Ala-Glu and Ala-Gln were tested according to the method of Lima et al, Brazilian J. Med Biol. Res., 25:637-640 (1992) for measuring intestinal sodium cotransport in rabbit ileal mucosa mounted in Ussing chambers. […] As shown the dose response increases dramatically in a non-linear fashion. […] The pD2 value is related to the ED50 in accordance with the following formula: -log ED50 =pD2.

C[C@H](N)C(=O)N[C@@H](CCC(N)=O)C(=O)O [Ala-Gln, alanyl-glutamine] (H-Ala-Gln-OH) was tested, and the “maximum increase (Emax) in Isc” value was 150 μA/cm^2.
